Assay results as given in publication PMC6985109, “Cellular apoptosis and necrosis as therapeutic targets for novel Eugenol Tosylate Congeners against Candida albicans” (Scientific Reports, 2020).
Converted amounts (≈) assume the structure as drawn.

Tests used:
horse red blood cells = assay: Cytotoxicity by haemolytic assay; type: cell-based; settings: 2 × MIC, 60 minutes at 37 °C, horse RBCs
Description: The cytotoxicity of the test compounds was determined on horse red blood cells (NHLS, Johannesburg, South Africa) by testing the haemolytic activity of these compounds using the method described previously, with some modifications. Briefly, in a sterile 15 ml falcon tube 5 ml of horse blood was centrifuged at 2000 × rpm for 10 minutes. The supernatant was discarded, and the cell pellet was washed three times with chilled PBS solution. The final pellet was used to yield a 10% RBC suspension with chilled PBS. The 10% suspension were further diluted to 1:10 in PBS, then 100 µl of this suspension was added to different concentration of test compounds (0.5 × MIC, 1 × MIC and 2 × MIC) in 1.5 ml tubes. The tubes were then incubated for 60 minutes at 37 °C followed by centrifugation at 2000 × rpm for 10 minutes. From each tube, 200 µl of the supernatant was transferred to a flat-bottomed 96-well microtiter plate and absorbance was monitored at 450 nm spectrophotometrically with an iMark microplate reader (Bio-Rad laboratories, CA, USA). Triton X-100 (1%) and PBS were used as positive and negative controls respectively. The percentage of haemolysis was calculated by the following equation: %haemolysis=A450oftestcompoundtreatedsample−A450ofbuffertreatedsample/A450of1%TritonX−100treatedsample−A450ofbuffertreatedsample×100%

[1] = tested on: fluconazole susceptible and resistant C. albicans strains; assay: Broth microdilution antifungal susceptibility, ranges over strains; type: cell-based; settings: Candida albicans; over the tested C. albicans strains
Description: In this study, 10 clinical Candida albicans isolates, comprising of 5 fluconazole susceptible and 5 fluconazole resistant, were used. C. albicans SC5314 was also used as a control laboratory strain. Clinical strains used in this study were stored at −80 °C supplemented with 20% glycerol in the Department of Clinical Microbiology and Infectious Diseases, University of the Witwatersrand, Johannesburg and were previously collected under the ethical clearance number M000402, obtained from the Human Research Ethics Committee, University of the Witwatersrand. For experimental purpose each strain from glycerol stock was recovered on Sabouraud Dextrose (SDA) agar plates at 37 °C for 24 h.
Minimum Inhibitory Concentration (MIC) and Minimum Fungicidal Concentrations (MFC) of all newly synthesized eugenol-tosylate congeners (ETC-1–ETC-7) against C. albicans strains were determined by broth microdilution assay in accordance with the approved guidelines described by Clinical and Laboratory Standards Institute (CLSI) guidelines M27-A[38]. The test compounds were prepared in 1% DMSO to a stock concentration of 8192 µg/ml. Two-fold dilutions of test compounds (100 µL) were prepared in 96-well flat-bottom microtiter plates, inoculated with 100 µl of inoculum (1 × 10^6 cells/mL) and incubated at 37 °C for 24 hours. In every set of experiment, positive control (fluconazole), negative vehicle control (1% DMSO) and culture control (media and cells only) were included. MIC’s were determined visibly as the lowest concentration of the test compounds that inhibited growth of test organism. To determine MFC, each well without visible growth was sub-cultured onto agar plates. Concentration in the first well with no growth on plate was taken as MFC. […] The experiment was performed in triplicate to validate the results.

[2] = tested on: C. albicans 4175, C. albicans 5112 and C. albicans SC5314; assay: FITC annexin V/PI staining flow cytometry, ranges over three strains; type: cell-based, Candida albicans; settings: range over 0.5 × MIC, 1 × MIC, 2 × MIC and three strains
Description: To study the effect of test compounds on apoptotic markers protoplasts were prepared as described previously, with modifications. Briefly, mid-exponential phase cells were harvested and exposed to various concentrations of test compounds (0.5 × MIC, 1 × MIC and 2×MIC) for 3 h. The cells were then washed twice with protoplast buffer- I (1 M sorbitol, 50 mM tris base, 10 mM MgCl2 and 30 mM DTT) and incubated in the same buffer for 15 minutes at 25 °C, followed by centrifugation at 1500 rpm for 5 minutes. Supernatant was removed and cells were incubated with buffer- II (1 M sorbitol, 50 mM tris base, 10 mM MgCl2 and 1 mM DTT) supplemented with lyticase enzyme (≥1 µg/mL) used to digest the cell wall for 1 h at 25 °C. Buffer- II were removed by centrifugation and then cells were incubated with buffer- III (1 M sorbitol, 50 mM tris base and 10 mM MgCl2) for 20 minutes at room temperature. After the incubation cells were again centrifuged at 1500 rpm for 5 minutes and supernatant was discarded. Protoplasts then finally washed once with PBS and re-suspended in the same for further use. In each washing steps the volume of these protoplast buffers were 5 times to cell volume with pH 7.4.
This assay was used to identify early apoptosis by detecting movement of phosphatidylserine (PS) from the inner to the outer leaflet of plasma membrane. FITC annexin V Apoptosis Detection Kit I (BD Biosciences, CA, USA) was used according to the manufacturer’s instructions. Protoplasts of C. albicans cells treated with different concentrations of the test compounds, as mentioned in above section, were resuspended in 1X annexin V binding buffer ([…]) at a concentration of 1 × 10^6 cells per ml. To the 100 µl of this solution, 5 µl each of FITC annexin V and propidium iodide (PI) was added. Tubes were gently vortexed and incubated for 15 minutes at 25 °C in the dark. After incubation, 400 µl of 1X annexin V binding buffer was added to each tube and analyzed using the BD LSRFortessa Flow cytometer (Becton Dickinson, NJ, USA). The cell populations in four different quadrants of a quadrant dot plot were analyzed and interpreted as; Q1: necrosis (annexin V^−/PI^+), Q2: late apoptosis (annexin V^+/PI^+), Q3: early apoptosis (annexin V^+/PI^−) and Q4: viable cells (annexin V^−/PI^−), by using software FlowJo_V10.

C=CCc1ccc(OS(=O)(=O)c2ccc(C(=O)O)cc2)c(OC)c1 [ETC-7, 4-{[2-methoxy-4-(prop-2-en-1-yl)phenoxy]sulfonyl}benzoic acid]
haemolytic activity (horse red blood cells): 8.91% | MFC [1]: 2 to 8 µg/mL (≈ 5.74 to 23 µM) | MIC [1]: 1 to 4 µg/mL (≈ 2.87 to 11.5 µM) | early apoptosis [2]: 8–32% | late apoptosis [2]: 2–26% | necrosis [2]: 1–31%
